# Assay results as given in patent US10052304B2, “Compositions and methods for cancer therapy” (UNIVERSITY OF IOWA RESEARCH FOUNDATION, priority 2015, dated 2018).
# Entries after “also recorded” stand apart in the source; their conditions may differ.
# Assays:
# NCI-H292 xenografts = system: NCI-H292 xenografts
# Procedure: Nude mice were injected with NCI-H292 cells into their flanks and tumors grown to a diameter of 2-4 mm.
# (§1) Female 4-6 week old female athymic-nu/nu mice were purchased from Envigo (previously Harlan Laboratories) and housed in the Animal Care Facility at the University of Iowa (Iowa City, Iowa), and all procedures were approved by the University of Iowa Institutional Animal Care and Use Committee and conformed to NIH guidelines. 1×10^6 H292 or U87 cells were injected subcutaneously into the right rear flank and mice were euthanized and sacrificed when tumor length exceeded 1.5 cm in any dimension. Treatment regimens were as described in the text and are summarized in the Supplemental Experimental Procedures.
# as §1, with “flank. […] Tumors were measured every other day with Vernier calipers (volume=(length×width×(width/2))” for “flank”, “dimension.” for “dimension. Treatment regimens were as described in the text and are summarized in the Supplemental Experimental Procedures.”
# GBM cells = assay: Cellular labile iron pool (Calcein-AM flow cytometry), GBM cells; type: cell-based, human; conditions: increasing doses of ascorbate
# Procedure: (§2) The labile iron pool (LIP) was visualized using the fluorescent dye Calcein-AM as previously described (Epsztejn et al., 1997) with modifications. After labeling, samples were divided into two flow cytometry sample tubes, to which 100 μM 2′,2′-bipyridyl (BIP) was added to one tube and analyzed by flow cytometry. BIP tubes were incubated for at least 15 minutes before analysis to allow for full chelation of intracellular labile iron. The LIP (A.U.)=MFIBIP−MFINoBIP was normalized against the control samples to calculate the relative labile iron pool.
# (§3) The labile iron pool (LIP) was visualized using the fluorescent dye Calcein-AM as previously described with modifications (Epsztejn et al., 1997). Briefly, after sample treatment, cells were trypsinized, spun at 1,200 rpm for 5 min, and resuspended at approximately 1×10^6 cells mL-1 in 500 nM Calcein-AM in PBS. Samples were incubated for 15 min at 4% O2 in a humidity controlled environment (37° C., 5% CO2). Subsequently, samples were pelleted, washed in PBS, and resuspended in 1 mL PBS before dividing each sample into two flow cytometry sample tubes, to which 100 μM 2′,2′-bipyridyl (BIP) was added to one tube. Samples were kept at room temperature and analyzed on a LSR II Flow Cytometer (BD Biosciences; λex=488 nm, λem=515/20 nm). […]
# ETC complex II = ETC complex II activity after ascorbate exposure; type: cell-based, human; conditions: 15 pmol cell^−1 ascorbate for 1 h, NSCLC cell lysates
# Procedure: Exponentially growing cells were scraped and frozen as dry pellets until assayed for total activity. Aconitase activity was measured as the rate of appearance of NADPH (at 340 nm; Beckman DU 800 spectrophotometer, Brea, Calif.) for 45 min during the reaction of 200 μg total sample protein with 200 μM NADP^+ and 10 U isocitrate dehydrogenase as previously described (Case et al., 2011). Maximal ETC complex activity was measured as previously described (Birch-Machin et al., 1994). Complex I activity was quantified as the rate of rotenone-inhibitable NADH oxidation (320 nm; c=6.22 mM^−1 cm^−1). Complex II activity as the difference in the rate of DCIP reduction in the presence and absence of succinate (at 600 nm; ε=19.1 mM^−1 cm^−1). Complex IV activity was assayed as the rate of oxidation of cytochrome c ([…]; ε=19.6 mM^−1 cm^−1). Rates of activities were normalized to total protein by Lowry.
# Exponentially growing cells were scraped and frozen as dry pellets until assayed for protein content (Lowry) and maximal ETC complex activity as previously described (Birch-Machin et al., 1994). Briefly, dry cell pellets were resuspended in 20 mM potassium phosphate buffer and sonicated 3×10 s each. Rates of activities were normalized to total protein. Complex I activity was quantified as the rate of rotenone-inhibitable NADH oxidation (320 nm; ε=6.22 mM-1 cm-1). […]
# U87 xenografts = assay: GBM (U87) flank xenograft model; type: in vivo, mice
# Procedure: 1×10^6 H292 or U87 cells were injected subcutaneously into the right rear flank. […] Tumors were measured every other day with Vernier calipers (volume=(length×width×(width/2)) and mice were euthanized and sacrificed when tumor length exceeded 1.5 cm in any dimension.
# HBEpCs = assay: Cellular labile iron pool (Calcein-AM flow cytometry), HBEpCs; type: cell-based, human; conditions: increasing doses of ascorbate
# Procedure: as §2, §3
# NCI-H292 cells = assay: Clonogenic survival assay, NCI-H292 NSCLC cells; type: cell-based, human
# Procedure: Treatment conditions for individual experiments are as described in the figure legends and summarized in the Supplemental Experimental Procedures.
# 1-2×10^5 cells were plated in 60 mm cell culture dishes and grown in their respective media for 48 h before exposed to experimental conditions. […] For AdGPx1 experiments, cells were supplemented with 50 nM sodium selenite following transduction and throughout clonogenic growth. […] After treatment, cells were washed with PBS and clonogenic assay was completed in their respective media. Briefly, floating and attached cells were collected and total cells per plate were counted. An experimentally derived number of cells were plated into each well of a 6-well cell culture plate in their respective media. For HEL92.1.7 suspension cells, cells were seeded in a top layer of 0.4% (w/v) agarose to allow for quantifiable colony formation. […] Normalized survival fractions were calculated by comparing plating efficiencies of each treatment group against the control group within a given experiment.
structure (smiles),measurement,setting,value
"O=C1O[C@H]([C@@H](O)CO)C(O)=C1O [ascorbate, L-ascorbic acid]",survival of xenograft-bearing mice,NCI-H292 xenografts; Example 1: ascorbate 4 g/kg IP daily + 12 Gy/6fx IR + weekly 15 mg/kg carboplatin vs chemo-radiation alone,survived significantly longer
same,tolerability (lack of weight loss),"NCI-H292 xenografts; Example 1: ascorbate 4 g/kg IP daily, alone or with chemo-radiation",well-tolerated
same,tolerability (mouse weight),NCI-H292 xenografts; Example 4: ascorbate 4 g kg^−1 IP daily,well tolerated
same,overall survival,NCI-H292 xenografts; Example 4: ascorbate 4 g kg^−1 IP daily + 12 Gy IR/2 fractions + weekly 15 mg kg^−1 CPL,significantly increased overall survival
same,cellular LIP after ascorbate,GBM cells,significant dose-dependent ascorbate-induced increases in cellular LIP
same,ETC complex II activity,ETC complex II,inactivation
same,tolerability (mouse weight),U87 xenografts; ascorbate 4 g kg^−1 IP daily,well tolerated
same,overall survival,U87 xenografts; ascorbate 4 g kg^−1 IP daily + 12 Gy IR/2 fractions + weekly 2.5 mg kg^−1 TMZ,significantly increased overall survival
same,cellular LIP after ascorbate,HBEpCs,not seen
same,sensitization to carboplatin + IR (clonogenic survival),NCI-H292 cells; 1 h ascorbate + 5 μM carboplatin + 2 Gy IR vs Carbo+IR alone,significantly increased sensitivity to Carbo+IR; also recorded: selectively sensitized
same,clonogenic survival / cell killing,"NCI-H292 cells; ascorbate alone, 1 h exposure",more clonogenic cell killing in NSCLC cell lines than chemotherapy plus radiation; also recorded: dose-dependent clonogenic cell killing
